Test results as given in patent US20150073033A1, “BIOMARKERS FOR CANCER CHARACTERIZATION AND TREATMENT” (Board of Regents, The University of Texas System, priority 2011, published 2015).
“Also recorded” adds a separate entry of the source.

Columns and labels:
[1] = tested on: ERK1/2; assay: EGF-induced ERK1/2 phosphorylation, immunoblotting; type: cell-based, human; settings: U87/EGFR cells; AG1478 1 μM or U0126 20 μM 30 min before EGF 6 h
Procedure: (§1) Immunofluorescence analyses of endogenous PKM2 or transiently expressed FLAG-PKM1 were performed with the indicated antibodies. […] Immunoblotting analyses were performed with the indicated antibodies. Nuclear PCNA was used as controls for immunoblotting analyses. c: An equal volume of cytosolic and nuclear fractions were prepared from U87/EGFR cells treated with or without EGF (100 ng/mL) for 6 h. Ten microliters of protein from cytosolic and nuclear fractions were used for immunoblotting analyses with the indicated antibodies. d: Nuclear fractions were prepared from U251 cells pretreated with LY290042 (30 μM), SU6656 (4 μM), SP600125 (25 μM), and U0126 (20 μM) for 30 min before EGF (100 ng/mL) for 6 h. Immunoblotting analyses were performed with the indicated antibodies. Nuclear PCNA and cytoplasmic tubulin were used as controls. e: U87/EGFR cells were pretreated with LY290042 (30 μM), SU6656 (4 μM), SP600125 (25 μM), and U0126 (20 μM) for 30 min before EGF (100 ng/mL) for 6 h. Immunoblotting analyses were performed with the indicated antibodies.
(§2) Extraction of proteins with a modified buffer from cultured cells was followed by immunoprecipitation and immunoblotting with corresponding antibodies, as described previously (Lu et al., 1998).

[2] = tested on: PKM2; assay: EGF-induced nuclear translocation of PKM2 (cell fractionation, immunoblotting, immunofluorescence); type: cell-based, human; settings: U87/EGFR (and U251) cells; 30 min pretreatment before EGF 100 ng/mL; LY290042 30 μM, SU6656 4 μM, SP600125 25 μM, U0126 20 μM, AG1478 1 μM, cycloheximide 100 μg/mL
Procedure: Immunoblotting analyses (b, b) were performed with the indicated antibodies. Nuclear PCNA and cytoplasmic tubulin were used as controls. a: The indicated cells were immunostained with an anti-PKM2 antibody.
Immunoblotting and immunoprecipitation analyses were performed with the indicated antibodies. a: Nuclear fractions were prepared from U87/EGFR cells pretreated with LY290042 (30 μM), SU6656 (4 μM), SP600125 (25 μM), and U0126 (20 μM) for 30 min before EGF (100 ng/mL) for 6 h. Nuclear PCNA and cytoplasmic tubulin were used as controls. b: U87/EGFR cells were pretreated with or without U0126 (20 μM) for 30 min before EGF (100 ng/mL) for 6 h. Immunofluorescence analyses were performed with the indicated antibodies. Nuclei were stained with Hoechst 33342 (blue). c: U251 cells were stably transfected with a vector with or without expressing FLAG-ERK2 K52R (left panel) or transiently transfected with vectors expressing MEK1 Q56P and indicated FLAG-tagged ERK2 proteins (right panel). The cells were treated with or without EGF (100 ng/mL) for 6 h, and the total cell lysates and nuclear fractions were prepared. d: FLAG-PKM2 or FLAG-PKM1 was immunoprecipitated with an anti-FLAG antibody from U87/EGFR cells treated with or without EGF (100 ng/mL) for 30 min. e: Bacterially-purified GST-ERK2 immobilized on glutathione agarose beads was mixed with or without purified His-PKM2. GST pull-down analyses were performed. Ten percent of total His-PKM2 was used as an input. f: U87/EGFR cells transfected with vectors expressing the indicated FLAG-tagged ERK proteins were treated with or without EGF (100 ng/mL) for 30 min. g: U87/EGFR cells expressing the indicated FLAG-PKM2 proteins were treated with or without EGF (100 ng/mL) for 30 min.
as §1
Cytosolic and nuclear fractions were prepared. Immunoblotting analyses were performed with the indicated antibodies. b: U87/EGFR cells with depleted endogenous PKM2 and reconstituted expression of RNAi-resistant WT rPKM2 or rPKM2 S37A were treated with or without EGF (100 ng/mL) for 6 h. Total cell lysates (left panel) and nuclear fractions (right panel) were prepared.

[3] = tested on: PKM2 expression; assay: EGF-induced PKM2 upregulation, immunoblotting; type: cell-based, human; settings: U87/EGFR cells; pretreatment before EGF 100 ng/mL 12 h; AG1478 1 μM, cycloheximide 200 μg/mL, Bis-I 2 μM, Go6976 2 μM, NF-κB activation inhibitor II 7 μM, AKT inhibitor 10 μM, TBB 50 μM, U73122 2 μM
Procedure: FIG. 56: EGFR activation results in upregulation of PKM2 expression. A-D: Immunoblotting analyses were performed with or without the indicated antibodies. A: The indicated cell lines were treated with EGF (100 ng/mL) for 12 h. B: U87 cells were stably transfected with plasmids expressing EGFR or EGFRvIII. […] D: U87/EGFR cells were pretreated with or without cycloheximide (CHX) (200 μg/mL) for 30 min before EGF (100 ng/mL) treatment for 12 h. […] The relative mRNA levels of PKM2 and PKM1 were normalized to the levels of untreated cells and β-actin mRNA. Data represent the mean±SD of three independent experiments.
FIG. 57: EGF increases PKM2 expression in a PKC- and NF-κB-dependent manner. A-D, H: Immunoblotting analyses were performed with the indicated antibodies. […] ChIP assay was performed with an anti-RelA antibody for immunoprecipitation, followed by PCR with PKM promoter-specific primers. F: An oligonucleotide containing the putative WT or mutated NF-κB binding sequence was labeled using [γ-^32P] ATP and T4 polynucleotide kinase. […] Samples were subjected to 5% polyacrylamide gel electrophoresis, and the dried gel was exposed to x-ray film. […] The relative levels of luciferase activity were normalized to the levels of untreated cells and to the levels of luciferase activity of the Renilla control plasmid. Data represent the mean±standard deviation of three independent experiments.
FIG. 58: PKCε downstream from PLCγ1, rather than TAK1, activates IKKβ and subsequently increases PKM2 expression. […] B: U87/EGFR cells were treated with TNFα (10 ng/mL) for the indicated time. C: U87/EGFR cells were treated with or without EGF (100 ng/mL) or TNFα (10 ng/mL) for 4 h. […] HIF1α was immunodepleted from the cell lysates by incubation with an anti-HIF1α antibody, which was followed by a ChIP assay with an anti-FLAG antibody for immunoprecipitation of FLAG-RelA and PCR analysis with PKM promoter-specific primers. […] F: 293T cells were transiently transfected with constitutively active (+) or kinase-dead (−) PKC mutants. […] H, I: 293T cells were transiently transfected with the indicated plasmids.

[4] = target: T1, IKKβ (Homo sapiens, UniProt O14920); settings: small molecules IKKβ inhibitors; values from the cited references; read-out: IC50 (half maximal inhibitory concentration); cited from earlier work
T1 sequence (O14920 1-756): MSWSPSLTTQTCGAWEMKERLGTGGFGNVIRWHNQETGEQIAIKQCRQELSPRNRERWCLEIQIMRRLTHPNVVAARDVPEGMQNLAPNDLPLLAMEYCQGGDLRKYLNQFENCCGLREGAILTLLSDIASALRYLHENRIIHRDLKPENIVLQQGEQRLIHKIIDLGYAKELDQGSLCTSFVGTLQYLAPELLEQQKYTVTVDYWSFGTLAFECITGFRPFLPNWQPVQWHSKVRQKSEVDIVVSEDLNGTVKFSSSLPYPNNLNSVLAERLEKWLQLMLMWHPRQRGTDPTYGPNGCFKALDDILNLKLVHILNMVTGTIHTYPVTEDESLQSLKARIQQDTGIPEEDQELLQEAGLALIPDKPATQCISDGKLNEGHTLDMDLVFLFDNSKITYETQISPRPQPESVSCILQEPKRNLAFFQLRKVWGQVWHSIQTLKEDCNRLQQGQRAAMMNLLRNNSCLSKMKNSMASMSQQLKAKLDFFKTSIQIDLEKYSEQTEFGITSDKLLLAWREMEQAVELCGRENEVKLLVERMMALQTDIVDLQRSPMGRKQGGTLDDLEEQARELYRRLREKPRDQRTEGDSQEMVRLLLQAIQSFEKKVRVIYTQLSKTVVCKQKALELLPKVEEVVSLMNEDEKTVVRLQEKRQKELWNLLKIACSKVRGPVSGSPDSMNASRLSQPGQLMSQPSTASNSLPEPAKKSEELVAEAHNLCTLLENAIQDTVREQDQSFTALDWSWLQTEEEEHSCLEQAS

[5] = tested on: U87/EGFRvIII cells; assay: Intracranial U87/EGFRvIII xenograft, intratumoral SU6656; type: in vivo, athymic nude mice
Procedure: FIG. 19: c-Src inhibition suppresses tumorigenesis and reduces β-catenin Y333 phosphorylation and cyclin D1 expression in tumor tissues. a: U87/EGFRvIII (5×10^5) cells were intracranially injected into athymic nude mice. After 5 d, seven mice were sacrificed to examine tumor growth; the remaining mice, whose tumors were intracranially injected with SU6656 (0.015 mg/kg in 5 μL of DMSO) or DMSO every three days, were sacrificed at day 15. […] C: Immunoblotting analyses of the indicated tumor tissues were performed with the indicated antibodies.
GBM cells (5×10^5) were intracranially injected (in 5 μL of DMEM per mouse), with or without regulation of β-catenin or PKM2 expression, into 4-week-old female athymic nude mice. The intracranial injections were performed, as described in a previous publication (Gomez-Manzano et al., 2006). Seven mice per group in each experiment were included. Animals injected with U87/EGFRvIII or GSC 11 cells were sacrificed 2 weeks or 30 days after glioma cell injection, respectively. The brain of each mouse was harvested, fixed in 4% formaldehyde, and embedded in paraffin. Tumor formation and phenotype were determined by histologic analysis of H & E-stained sections.
For doxycycline induction studies, seven mice were sacrificed 14 days after GBM cell injection to examine tumor growth, whereas the remaining 14 mice in two groups were fed with or without water containing 800 μg/mL doxycycline. The water containing doxycycline was changed every three days. The mice in these two groups were sacrificed at day 30. For the SU6656 treatment studies, seven mice were sacrificed five days after U87/EGFRvIII cell injection to examine tumor growth, whereas the remaining 14 mice in two groups were treated with either DMSO or SU6656. SU6656 (0.015 mg/kg in 5 μL of DMSO) was intracranially injected into the tumor every three days, and the mice in both groups were sacrificed at day 14 after GBM cell injection.

[6] = target: c-Src (Homo sapiens, UniProt P12931); assay: EGF-induced c-Src activation (Y418 phosphorylation), immunoblotting; type: cell-based; settings: U87/EGFR cells; SU6656 4 μM 30 min before EGF 100 ng/mL 6 h
Procedure: as §1, §2

[7] = tested on: β-catenin; assay: EGF-induced β-catenin Tyr/Y333 phosphorylation, immunoprecipitation and immunoblotting; type: cell-based, human
Procedure: FIG. 2: c-Src phosphorylates β-catenin at Y333 upon EGFR activation. a: U87/EGFR cells were treated with SU6656 (4 μM) or an Abl inhibitor (0.2 μM) for 30 min before EGF treatment for 6 h. b: The indicated cells were treated with or without EGF for 6 h. c: β-catenin was immunoprecipitated from the nuclear fractions of U87/EGFR cells treated with or without EGF for 6 h. d, g: U87/EGFR cells transiently expressing the indicated FLAG-tagged β-catenin proteins were treated with or without EGF for 6 h. e: In vitro kinase assays were performed with purified active c-Src and purified β-catenin proteins. f: Immobilized GST-β-catenin proteins were mixed with purified His-PKM2 proteins in the presence or absence of active c-Src.
(§3) FIG. 16: EGF induces the nuclear translocation of PKM2, c-Src-dependent […] Y333 phosphorylation, and a c-Src-dependent interaction between PKM2 and β-catenin in primary GBM cells. […] Nuclear PCNA and cytoplasmic tubulin were used as controls.

[8] = tested on: PKM2-β-catenin interaction; assay: EGF-induced association of β-catenin with PKM2 in primary GBM cells (co-IP); type: cell-based; settings: GSC11 and GSC23 human primary GBM cells; SU6656 4 μM 30 min before EGF 100 ng/mL 6 h
Text: as §3

[9] = SU6656 0.015 mg/kg intratumoral every three days

c-Src, sequence (P12931 whole entry): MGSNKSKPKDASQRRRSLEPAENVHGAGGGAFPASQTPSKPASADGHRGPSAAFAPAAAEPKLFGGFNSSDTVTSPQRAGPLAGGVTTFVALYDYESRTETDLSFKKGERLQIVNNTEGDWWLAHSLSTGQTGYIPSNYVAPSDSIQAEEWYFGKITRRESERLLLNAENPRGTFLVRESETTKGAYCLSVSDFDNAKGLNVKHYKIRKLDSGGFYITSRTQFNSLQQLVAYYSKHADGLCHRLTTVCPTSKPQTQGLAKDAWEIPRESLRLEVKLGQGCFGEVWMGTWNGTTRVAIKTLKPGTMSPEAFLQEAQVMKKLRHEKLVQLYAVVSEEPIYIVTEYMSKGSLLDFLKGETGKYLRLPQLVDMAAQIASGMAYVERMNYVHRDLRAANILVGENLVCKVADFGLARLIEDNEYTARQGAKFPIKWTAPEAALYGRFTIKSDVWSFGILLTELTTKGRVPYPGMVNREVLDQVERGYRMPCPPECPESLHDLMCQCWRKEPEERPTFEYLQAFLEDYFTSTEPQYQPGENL

COc1cc2ncnc(Nc3cccc(Cl)c3)c2cc1OC [AG1478]
EGF-induced phosphorylation of ERK1/2 [1]: blocked | EGF-induced nuclear accumulation/translocation of PKM2 [2]: abrogated | EGF-induced PKM2 upregulation/expression [3]: blocked; also recorded: abrogated

O=C(Nc1cc(C(F)(F)F)cc(C(F)(F)F)c1)c1cc(Cl)ccc1O [IMD-0354]
IC50 [4]: 0.28 to 3 µM

O=C(N/N=C/c1ccc([N+](=O)[O-])cc1)c1ccc2ccccc2c1 [LASSBio-1524]
IC50 [4]: 20 µM

Cc1cc(N)ccc1N=Nc1ccc(S(=O)(=O)CCOS(=O)(=O)O)cc1 [NSC 676914]
IC50 [4]: 17 µM

C[C@]1(CO)CN(c2cc(C(=O)Nc3ccc4c(c3)-c3c(c(C(N)=O)nn3-c3ccc(F)cc3)CC4)c(Cl)cn2)C[C@@]1(C)CO [PF-184]
IC50 [4]: 0.037 µM

O=C(Nc1cc(Cl)cc2c1[nH]c1cnccc12)c1cccnc1 [PS1145]
IC50 [4]: 0.088 µM

CN(C)S(=O)(=O)c1ccc2c(c1)/C(=C/c1cc3c([nH]1)CCCC3)C(=O)N2 [SU6656]
tumor growth ([5]; SU6656 0.015 mg/kg in 5 μL DMSO intratumoral every three days vs DMSO): significantly blocked tumor growth | cyclin D1 expression in tumor tissue [5, 9]: inhibited | phosphorylation level of c-Src Y418 in tumor tissue [5, 9]: reduced | phosphorylation level of β-catenin Y333 in tumor tissue [5, 9]: reduced | EGF-induced nuclear accumulation/translocation of PKM2 [2]: only inhibition of MEK/ERK abrogated | EGF-induced activation/phosphorylation of c-Src (Y418) [6]: completely abrogated; also recorded: blocked | EGF-induced phosphorylation of β-catenin Y333 ([7]; GSC11 and GSC23 human primary GBM cells, SU6656 4 μM 30 min before EGF 100 ng/mL 6 h): blocked | EGF-induced Tyr phosphorylation of β-catenin ([7]; U87/EGFR cells, SU6656 4 μM or Abl inhibitor 0.2 μM 30 min before EGF 6 h): blocked | EGF-induced association of β-catenin with PKM2 [8]: blocked

C[C@@H]1C[C@@H]([C@H](O)CC2CC(=O)NC(=O)C2)C(=O)[C@@H](C)C1 [cycloheximide]
EGF-induced nuclear accumulation/translocation of PKM2 [2]: did not inhibit | EGF-induced PKM2 upregulation/expression [3]: inhibited
